Columns and labels:
P. aeruginosa R1023 = assay: In vivo efficacy, whole-body infected mouse model, Ceftazidime-resistant bacteria;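 for Survival rate: each column one dose of 5 10 20 or 40 mg/kg given sc at 1 h and 4 h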; parameters: species or system ICR mouse; details: for Survival rate: subcutaneous 1 h and 4 h after infection, P. aeruginosa R1023 (2 × 10^6 CFU/mouse), four days
Description: (§1) Pharmaceutical efficacy of the cephalosporin derivative compounds according to the present invention was evaluated in a whole-body infected mouse model. Tables 3 and 4 show survival rate and ED50 values for the two compounds with excellent antibacterial activity with regard to an infected mouse by a drug-sensitive bacteria and a drug-resistant bacteria.
(§2) Test animals: 3 week old male ICR mouse, weight 18˜22 g; 5 mice/group.
(§3) Lab conditions: Temperature of 23±2° C.; humidity of 55±20%.
(§4) Administration method: Inducing whole-body infection by bacterial solution followed by subcutaneous injection (0.2 mL) after 1 hour and 4 hours.
(§5) Test method: Cultured bacteria were diluted with 0.9% NaCl to prepare a bacterial solution having a concentration that is 5 to 10 times of […]. 0.5 mL of bacterial solution was injected through abdominal cavity to induce whole-body infection. Test compounds were administered in four different amounts, which were designed considering in vitro MIC values of the test bacteria. After 1 hour and 4 hours, the four different amounts of the test compounds were subcutaneously administered. Survival rates were measured for four days and ED50 values were calculated according to the Probit method.

P. aeruginosa 1912E = assay: In vivo efficacy, whole-body infected mouse model, Ceftazidime-sensitive bacteria; parameters: species or system ICR mouse; details: P. aeruginosa 1912E (2 × 10^6CFU/mouse); for Survival rate: four days
Description: as §1, §2, §3, §4, §5

Compound | ED50 (P. aeruginosa R1023; Pseudomonas aeruginosa, sc, Probit method, subcutaneous, mouse infected by Ceftazidime-resistant P. aeruginosa R1023) [mg/kg] | Survival rate (P. aeruginosa R1023; administered amount 5 mg/kg) [%] | Survival rate (P. aeruginosa R1023; administered amount 10 mg/kg) [%] | Survival rate (P. aeruginosa R1023; administered amount 20 mg/kg) [%] | Survival rate (P. aeruginosa R1023; administered amount 40 mg/kg) [%] | pharmaceutical efficacy (in words) (P. aeruginosa R1023; whole-body infected mice by the drug-resistant bacteria) | Survival rate (P. aeruginosa 1912E; 2.5 mg/kg subcutaneous after 1 hour and 4 hours) [%] | Survival rate (P. aeruginosa 1912E; 5 mg/kg subcutaneous after 1 hour and 4 hours) [%] | Survival rate (P. aeruginosa 1912E; 10 mg/kg subcutaneous after 1 hour and 4 hours) [%] | Survival rate (P. aeruginosa 1912E; 20 mg/kg subcutaneous after 1 hour and 4 hours) [%] | ED50 (P. aeruginosa 1912E; Pseudomonas aeruginosa, sc, subcutaneous, Probit method) [mg/kg]
C[C@H](O/N=C(\C(=O)N[C@@H]1C(=O)N2C(C(=O)[O-])=C(C[n+]3cnc(N)c(NCCNC(=O)c4cc(=O)c(O)cn4O)c3)CSC12)c1nc(N)sc1Cl)C(=O)O (some centres unmarked) [Compound 4] | 10 | 40 | 40 | 80 | 100 | much greater than that of Ceftazidime | – | – | – | – | –
CC(C)(O/N=C(\C(=O)N[C@@H]1C(=O)N2C(C(=O)[O-])=C(/C=C/C[n+]3cnc(N)c(NCCNC(=O)c4cc(=O)c(O)cn4O)c3)CSC12)c1csc(N)n1)C(=O)O (some centres unmarked) [Compound 8] | – | – | – | – | – | – | 60 | 80 | 100 | 100 | 1.25
